Experimental data published in ChEMBL document CHEMBL1201862, “PubChem BioAssay data set” (2004).
Active and inactive are the calls of the source. Non-standard residues stand in square brackets, D forms with d. Residues, ends and D or L forms follow the SMILES beside them. ξ: configuration not given here. *: point of attachment. Trx = NC[C@H]1CC[C@H](C(=O)O)CC1; Tic = O=C(O)[C@@H]1Cc2ccccc2CN1; Ile(3ξ) = CCC(C)[C@H](N)C(=O)O; Boc = CC(C)(C)OC(=O)*

Assays:
[1] = target: T1, High affinity choline transporter 1 (Homo sapiens, UniProt Q9GZV3); experiment: human choline transporter blockers, potency – cell-based, 5-point CRC, membrane potential dye, dose response (AID 504840); assay type: functional
T1 sequence (Q9GZV3 whole entry): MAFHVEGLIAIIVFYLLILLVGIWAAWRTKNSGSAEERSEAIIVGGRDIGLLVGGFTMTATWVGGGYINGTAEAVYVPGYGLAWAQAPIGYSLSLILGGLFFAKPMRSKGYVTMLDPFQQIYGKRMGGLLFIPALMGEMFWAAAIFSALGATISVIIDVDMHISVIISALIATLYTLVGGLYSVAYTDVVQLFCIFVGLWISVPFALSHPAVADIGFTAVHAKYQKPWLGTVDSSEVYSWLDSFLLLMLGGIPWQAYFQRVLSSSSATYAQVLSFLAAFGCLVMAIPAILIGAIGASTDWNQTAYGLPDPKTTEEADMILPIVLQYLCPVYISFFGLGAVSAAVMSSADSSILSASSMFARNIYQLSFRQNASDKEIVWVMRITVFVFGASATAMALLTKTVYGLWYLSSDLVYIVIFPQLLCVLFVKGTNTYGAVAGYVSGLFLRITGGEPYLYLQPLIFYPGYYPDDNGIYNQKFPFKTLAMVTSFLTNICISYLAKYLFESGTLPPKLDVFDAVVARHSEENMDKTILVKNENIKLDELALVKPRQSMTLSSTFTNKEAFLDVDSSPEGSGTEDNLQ

[2] = target: T2, Carboxy-terminal domain RNA polymerase II polypeptide A small phosphatase 1 (Homo sapiens, UniProt Q9GZU7); experiment: CTDSP1 inhibitors, concentration-response, biochemical, absorbance readout, ultra-high-throughput screen actives (AID 540297); assay type: functional
T2 sequence (Q9GZU7 whole entry): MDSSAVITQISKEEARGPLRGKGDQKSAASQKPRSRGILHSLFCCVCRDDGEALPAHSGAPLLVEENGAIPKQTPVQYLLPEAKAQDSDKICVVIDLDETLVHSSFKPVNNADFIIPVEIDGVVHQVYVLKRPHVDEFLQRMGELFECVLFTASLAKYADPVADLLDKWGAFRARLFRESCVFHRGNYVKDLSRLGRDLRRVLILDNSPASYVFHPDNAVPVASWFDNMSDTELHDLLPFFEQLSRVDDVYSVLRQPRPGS

[3] = Trypanosoma cruzi growth suppression in host cells – NIH3T3 host cells, beta-gal luminescence, confirmation (AID 2044); assay type: functional, cell-based;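 also: intracellular parasites grown in NIH/3T3 mouse fibroblasts as host cells; luminescent beta-galactosidase reporter signal from transgenic T. cruzi replicating inside host cells; inhibitors lower the luminescence signal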
[4] = NIH3T3 cell viability loss – ATP luminescence, mouse fibroblasts, counter-screen, dose response (AID 2010); assay type: functional, cell-based;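 also: cells exposed to compound for about 90 hours before reading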
[5] = activation of miR-122 Renilla sensor silencing – cell-based, Huh7 psiCHECK-miR122, Renilla luciferase, cherry-picked, dose response (AID 651956); assay type: functional;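 also: huh7 hepatoma cells stably carrying a psiCHECK-2 miR-122 sensor plasmid; renilla luciferase signal reporting endogenous miR-122 activity after 48 h compound exposure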
[6] = target: Cytochrome P450 2D6 (Homo sapiens, UniProt P10635);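 also: CYP2D6 member of a cytochrome P450 panel assay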
[7] = target: Cytochrome P450 3A4 (Homo sapiens, UniProt P08684);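 also: CYP3A4 tested as one member of a cytochrome P450 panel screen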
[8] = target: Cytochrome P450 2C9 (Homo sapiens, UniProt P11712)
[9] = target: T3, Corticotropin-releasing factor receptor 2/Corticotropin-releasing factor-binding protein (Homo sapiens, UniProt P24387+Q13324); experiment: Dose Response confirmation of uHTS hits for small molecule antagonists of the CRF-binding protein and CRF-R2 receptor complex.; assay type: functional; conditions: read-out: IC50_Mean
T3 sequence (Q13324 whole entry): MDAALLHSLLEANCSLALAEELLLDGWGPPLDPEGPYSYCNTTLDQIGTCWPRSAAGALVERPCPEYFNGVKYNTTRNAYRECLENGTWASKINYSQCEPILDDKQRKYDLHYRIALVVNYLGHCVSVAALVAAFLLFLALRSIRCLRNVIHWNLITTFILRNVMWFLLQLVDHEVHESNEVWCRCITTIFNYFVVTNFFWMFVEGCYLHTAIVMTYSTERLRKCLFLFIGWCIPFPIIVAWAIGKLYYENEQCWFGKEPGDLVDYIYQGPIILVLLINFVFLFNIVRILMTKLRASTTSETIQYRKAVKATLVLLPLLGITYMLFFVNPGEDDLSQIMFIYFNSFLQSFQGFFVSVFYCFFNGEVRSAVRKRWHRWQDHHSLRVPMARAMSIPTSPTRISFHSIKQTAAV
T3 sequence (P24387 whole entry): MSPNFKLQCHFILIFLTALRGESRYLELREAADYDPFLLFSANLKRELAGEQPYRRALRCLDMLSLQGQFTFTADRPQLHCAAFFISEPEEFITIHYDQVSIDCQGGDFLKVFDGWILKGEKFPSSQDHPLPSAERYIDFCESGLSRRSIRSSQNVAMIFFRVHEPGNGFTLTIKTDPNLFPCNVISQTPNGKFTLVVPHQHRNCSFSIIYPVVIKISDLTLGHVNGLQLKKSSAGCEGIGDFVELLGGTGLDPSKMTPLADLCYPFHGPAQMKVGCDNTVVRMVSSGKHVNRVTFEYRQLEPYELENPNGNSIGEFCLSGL

[10] = target: T3, Corticotropin-releasing factor receptor 2/Corticotropin-releasing factor-binding protein; experiment: activators of CRF receptor 2 with binding protein – uHTS hits, confirmation (AID 602473); assay type: functional; conditions: read-out: EC50_Mean
[11] = target: T4, DNA repair protein RAD52 homolog (Homo sapiens, UniProt P43351); assay type: functional, biochemical
T4 sequence (P43351 whole entry): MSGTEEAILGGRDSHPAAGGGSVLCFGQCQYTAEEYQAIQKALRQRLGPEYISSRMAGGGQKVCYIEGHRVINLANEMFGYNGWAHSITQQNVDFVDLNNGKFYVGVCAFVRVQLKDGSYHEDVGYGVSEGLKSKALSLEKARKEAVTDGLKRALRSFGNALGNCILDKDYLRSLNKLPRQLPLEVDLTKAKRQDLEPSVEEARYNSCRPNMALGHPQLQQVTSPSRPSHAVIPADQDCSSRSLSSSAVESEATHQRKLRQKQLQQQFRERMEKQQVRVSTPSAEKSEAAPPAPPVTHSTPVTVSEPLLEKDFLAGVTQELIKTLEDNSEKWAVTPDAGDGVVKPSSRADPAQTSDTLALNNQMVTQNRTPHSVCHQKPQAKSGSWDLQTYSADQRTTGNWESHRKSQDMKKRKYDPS

[12] = target: Cytochrome P450 2C19 (Homo sapiens, UniProt P33261); experiment: Cytochrome panel assay with activity outcomes. Panel member name: p450-cyp2c19 Compounds with AC50 equal or less than 10 uM are considered active; assay type: functional; conditions: read-out: AC50
[13] = NIH-3T3 fibroblast cytotoxicity, dose response, cytotoxicity control, cell-based, fluorescence, Alamar Blue, secondary assay (AID 2327); assay type: functional;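 also: NIH-3T3 mouse fibroblasts cultured with fluconazole at 8 µg/mL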
[14] = fluconazole-exposed Candida albicans growth modulators – fluorescence, retest, confirmation (AID 2467); assay type: functional, cell-based

Sequence of Cytochrome P450 3A4 (P08684 whole entry): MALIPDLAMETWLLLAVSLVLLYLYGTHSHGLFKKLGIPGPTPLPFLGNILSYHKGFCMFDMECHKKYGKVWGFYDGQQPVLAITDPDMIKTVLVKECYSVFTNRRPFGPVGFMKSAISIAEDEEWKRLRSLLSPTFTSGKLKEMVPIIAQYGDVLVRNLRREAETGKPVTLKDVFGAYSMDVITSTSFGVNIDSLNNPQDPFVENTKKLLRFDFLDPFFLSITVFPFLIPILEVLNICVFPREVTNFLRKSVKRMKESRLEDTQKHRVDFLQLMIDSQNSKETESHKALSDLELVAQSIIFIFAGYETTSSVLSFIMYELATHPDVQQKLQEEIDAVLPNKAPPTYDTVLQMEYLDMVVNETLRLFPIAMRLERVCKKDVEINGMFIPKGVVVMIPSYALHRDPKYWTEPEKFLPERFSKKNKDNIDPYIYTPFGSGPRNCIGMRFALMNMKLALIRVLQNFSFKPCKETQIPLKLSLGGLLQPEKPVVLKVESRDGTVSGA
Sequence of Cytochrome P450 2C9 (P11712 whole entry): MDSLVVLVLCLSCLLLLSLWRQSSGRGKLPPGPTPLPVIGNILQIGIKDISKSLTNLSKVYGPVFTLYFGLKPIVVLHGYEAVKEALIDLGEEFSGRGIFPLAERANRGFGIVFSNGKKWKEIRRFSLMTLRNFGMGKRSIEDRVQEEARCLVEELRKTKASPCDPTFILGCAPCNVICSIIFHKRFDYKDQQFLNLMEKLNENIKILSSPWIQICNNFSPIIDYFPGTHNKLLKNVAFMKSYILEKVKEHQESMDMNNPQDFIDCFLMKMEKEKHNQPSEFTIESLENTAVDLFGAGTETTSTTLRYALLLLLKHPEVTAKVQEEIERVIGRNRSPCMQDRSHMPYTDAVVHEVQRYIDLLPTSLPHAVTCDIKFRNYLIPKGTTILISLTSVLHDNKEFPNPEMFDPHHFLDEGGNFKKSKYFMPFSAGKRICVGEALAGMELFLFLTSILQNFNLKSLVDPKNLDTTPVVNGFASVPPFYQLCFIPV
Sequence of Cytochrome P450 2D6 (P10635 whole entry): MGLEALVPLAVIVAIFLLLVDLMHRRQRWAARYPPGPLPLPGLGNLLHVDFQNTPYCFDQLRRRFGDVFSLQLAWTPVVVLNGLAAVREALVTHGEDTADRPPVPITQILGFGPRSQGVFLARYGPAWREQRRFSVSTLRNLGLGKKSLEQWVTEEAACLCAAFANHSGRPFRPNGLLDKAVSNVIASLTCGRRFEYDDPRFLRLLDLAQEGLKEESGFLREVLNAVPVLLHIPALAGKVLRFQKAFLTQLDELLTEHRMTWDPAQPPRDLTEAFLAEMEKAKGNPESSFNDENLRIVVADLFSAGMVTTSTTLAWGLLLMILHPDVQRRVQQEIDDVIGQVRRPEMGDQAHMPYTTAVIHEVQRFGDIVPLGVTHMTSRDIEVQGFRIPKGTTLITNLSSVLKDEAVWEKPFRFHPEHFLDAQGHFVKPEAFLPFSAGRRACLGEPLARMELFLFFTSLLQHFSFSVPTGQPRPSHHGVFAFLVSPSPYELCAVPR
Sequence of Cytochrome P450 2C19 (P33261 whole entry): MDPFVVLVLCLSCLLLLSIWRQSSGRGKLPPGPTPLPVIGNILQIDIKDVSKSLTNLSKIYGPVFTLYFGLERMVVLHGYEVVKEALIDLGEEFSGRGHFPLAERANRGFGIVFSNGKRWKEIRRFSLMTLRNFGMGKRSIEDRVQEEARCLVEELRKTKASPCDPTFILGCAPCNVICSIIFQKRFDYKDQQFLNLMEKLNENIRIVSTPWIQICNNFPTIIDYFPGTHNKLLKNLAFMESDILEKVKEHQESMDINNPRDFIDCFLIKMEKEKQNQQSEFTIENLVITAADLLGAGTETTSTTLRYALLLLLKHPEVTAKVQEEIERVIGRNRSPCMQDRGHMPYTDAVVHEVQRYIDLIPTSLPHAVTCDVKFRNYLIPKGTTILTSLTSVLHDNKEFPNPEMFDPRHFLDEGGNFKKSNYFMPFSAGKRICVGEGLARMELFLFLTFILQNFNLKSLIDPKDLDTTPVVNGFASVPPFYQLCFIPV

Q: With CC(C)COc1nc2ccccc2nc1N1CCN(C)CC1 as the compound, how does the IC50 [1] read?
A: 15.1 µM (active)

Q: Which IC50 [2] does the source give for O=C(O)CCNc1ccc(Cl)cc1 here?
A: 16.9 µM (active)

Q: Which EC50 [3] does the source give for CCOC(=O)N1CCN(C(=O)c2oc3ccc(S(=O)(=O)N4CCCCCC4)cc3c2C)CC1 here?
A: 2.02 µM (active)

Q: What about the EC50 [4] of the same compound?
A: > 60 µM (not active)

Q: What about the IC50 [1] of the same compound?
A: 13.2 µM (active)

Q: With C[C@@H]1CN([C@@H](C)CO)C(=O)c2cc(NC(=O)Nc3cccc4ccccc34)ccc2O[C@@H](C)CCCCO[C@H]1CN(C)CC1CCCCC1 as the compound, how does the AC50 [5] read?
A: 8.95 µM (active)

Q: Which AC50 [6] does the source give for Cc1nc2cnc(Nc3ccccc3)nc2n(C)c1=O here?
A: 39.8 µM (inconclusive)

Q: And the AC50 [7]?
A: 15.8 µM (inconclusive)

Q: And the AC50 [8]?
A: 20 µM (inconclusive)

Q: Which results are given for CCOc1ccc(C(=O)OCC(=O)Nc2cccnc2Cl)cc1OCC?
A: IC50 [9]: > 47.1 µM (inactive); EC50 [10]: > 53 µM (inactive)

Q: For CC(C)(C)NC(=O)C(c1ccc(O)cc1)N(Cc1ccc2c(c1)OCO2)C(=O)CCl (configuration not stated), which IC50 [9] is on record?
A: > 47.1 µM (inactive)

Q: And the EC50 [10]?
A: > 53 µM (inactive)

Q: Which IC50 [2] does the source give for CSc1ccc(/C=N/NC(=O)c2cccc(Cl)c2)cc1 here?
A: 13.4 µM (active)

Q: Which IC50 [2] does the source give for O=C(N/N=C/c1cc(Cl)cc([N+](=O)[O-])c1O)c1cc(-c2ccccn2)nc2ccccc12 here?
A: 1.85 µM (active)

Q: For Nc1ccc(CC(N)c2csc(Nc3ncccn3)n2)cc1 (configuration not stated), which AC50 [11] is on record?
A: 19.2 µM (active)

Q: Which results are given for O=C(CNC(=O)c1ccccc1)NCC(=O)OCc1ccc(Cl)cc1?
A: AC50 [12]: 20 µM (inconclusive); AC50 [6]: 20 µM (inconclusive); AC50 [7]: 14.1 µM (inconclusive); AC50 [8]: 0.1 µM (inconclusive)

Q: For O=C(NCCCO)C(=O)Nc1cc2c3c(c1)CCN3C(=O)CC2, which IC50 [9] is on record?
A: > 47.1 µM (inactive)

Q: And the EC50 [10]?
A: > 53 µM (inactive)

Q: With O=C(O)c1cccc2c1C(=O)N(c1ccc3c(c1)Cc1ccccc1-3)C2=O as the compound, how does the IC50 [2] read?
A: 7.59 µM (active)

Q: With Cc1ccc(-c2ccc3c(c2)O[C@H](CN(C)C(=O)CC2CC2)[C@H](C)CN([C@H](C)CO)S3(=O)=O)cc1 as the compound, how does the AC50 [5] read?
A: 10.7 µM (active)

Q: Which IC50 [2] does the source give for Cc1ccc(Cl)cc1NC(=O)CSc1sc2c(O)cc(O)nc2c1C#N here?
A: 4.49 µM (active)

Q: Which EC50 [13] does the source give for Cc1ccc(C2CC2C(=O)NN=C(S)Nc2cccc(Cl)c2)cc1 (configuration not stated) here?
A: > 160 µM (inactive)

Q: And the EC50 [14]?
A: > 38 µM (not active)

Q: And the IC50 [1]?
A: 15.8 µM (active)

Q: For Cc1csc(=N)n1CC(=O)N1CCc2ccccc21, which IC50 [1] is on record?
A: 13.2 µM (active)

Q: With CCC(C)[C@H](NC(=O)[C@@H]1Cc2ccccc2CN1C(=O)OC(C)(C)C)C(=O)NC[C@H]1CC[C@H](C(=O)O)CC1 (some centres not stated) (Boc-[Tic]-[Ile(3ξ)]-[Trx]-OH) as the compound, how does the IC50 [9] read?
A: > 47.1 µM (inactive)

Q: And the EC50 [10]?
A: > 53 µM (inactive)

Q: For C[C@@H]1CN([C@H](C)CO)S(=O)(=O)c2ccc(C3=CCCCC3)cc2O[C@@H]1CN(C)C(=O)Cc1ccncc1, which AC50 [5] is on record?
A: 8.26 µM (active)
